Residues, ends and D or L forms follow the SMILES beside them.
What was measured:
[1] = test system: S. epidermidis (ATCC 35984) biofilm; assay: Biofilm-formation inhibitory activity, crystal violet staining; type: cell-based, Staphylococcus epidermidis; settings: CV staining, TSB, 10^6 CFU/mL, 24 h, 37°C, 0.98-250 µg/mL
Protocol: The biofilm inhibitory activity of peptide derivatives was assessed by modified crystal violet (CV) staining. Briefly, the pellet of S. epidermidis (ATCC 35984) was collected through centrifugation of bacterial suspensions grown overnight at 2,500 × g for 5 min. Subsequently, the pellet was resuspended and diluted with TSB to a final concentration of 10^6 CFU/mL. Then, 50 µL of these diluted suspensions was transferred to 96-well microplates containing same volume of peptide derivatives in 10 mM phosphate buffer saline (PBS; Caisson Labs, USA), with concentrations ranging from 0.98 to 250 µg/mL. Vancomycin was used as positive control while TSB medium without bacteria was used as negative control. After 24 h of incubation and reaching static growth at 37°C, culture media as well as planktonic cells were removed, then the biofilm in each well was washed thrice with 0.85% NaCl. For CV staining, biofilms were fixed with 95% ethanol and stained with a 0.1% (v/v) CV solution for 15 min. After removal of excess dye, each well was washed thrice with 0.85% NaCl and resuspended in 95% ethanol to dissolve bound dye. Absorbance was determined at 570 nm using a Multiskan SkyHigh microplate reader (Thermo Scientific™, Singapore). All experiments were done in six technical replicates and repeated independently three times. Minimum biofilm inhibitory concentrations at 50% and 90% (MBIC50 and MBIC90) refers to concentrations of the peptide at which the inhibition of biofilm was at least 50% and 90%, respectively.

[2] = test system: S. epidermidis biofilm formation genes (ica, agr); assay: Transcriptional analysis, real-time RT-PCR; type: cell-based, Staphylococcus epidermidis; settings: at MBIC50, 24 h
Protocol: The expression level of S. epidermidis biofilm formation gene was investigated using a real-time reverse transcription-polymerase chain reaction. In brief, total RNA of S. epidermidis biofilm, both untreated and treated with BiF2_5K7K (at MBIC50 for 24 h), was extracted by a RNeasy PowerBiofilm Kit (Qiagen, USA) and immediately reverse transcribed to cDNA by iScript reserve transcription supermix (Biolabs, UK). RNAprotect Bacteria Reagent (Qiagen, USA) was used to preserve RNA during isolation. Remaining DNA was removed by treatment with DnaseI (Biolabs, UK). Real-time RT-PCR was done in duplicate using iTaq Universal SYBR Green Supermix (Bio-Rad, USA) with 5 ng of cDNA and […] of forward and reverse primers (Table S1) using a CFX96 Real-Time PCR Detection System (Bio-Rad, USA). The cycling condition was started with an initial denaturation at 95°C for 2 min, followed by 50 amplification cycles consisting of 95°C for 30 s, 56°C for 1 min, and 72°C for 1 min. Subsequently, a melting curve was generated from 65°C to 95°C at intervals of 1 s at the end of each run. To analyse the relative quantitation of gene expression, 2^− ΔΔCt method was used, and 16S ribosomal subunit (rRNA) was served as the reference or housekeeping gene.

[3] = test system: preformed S. epidermidis biofilm; assay: Biofilm eradication activity (peg lid, colony counting); type: cell-based, Staphylococcus epidermidis; settings: 24 h treatment
Protocol: The eradication capacity of BiF2_5K7K against preformed biofilm was examined as previously described with some modifications. In brief, suspensions of S. epidermidis with a final density of 10^6 CFU/mL were added to 96-well microplates, then covered with 96-peg lids (Nunc™ Immuno TSP Lids, Denmark). Following 24 h of incubation at 37°C, the peg lids were washed with 0.85% NaCl to remove culture media and non-adherent cells. Afterwards, the biofilms adherent to peg lids were incubated at 37°C for 24 h with different concentrations of peptide derivatives. The peg lids were subsequently washed and placed on new plates containing PBS. The biofilms on the lid were removed using a water bath sonicator (Bandelin SONOREX™, Germany). Biofilms were subsequently diluted and then placed on TSA. Minimum biofilm eradication concentrations at 50% and 90% (MBEC50 and MBEC90) refer to the concentration of the peptide at which established biofilm was eradicated by at least 50% and 90%, respectively.

[4] = test system: mature S. epidermidis biofilm; assay: Confocal laser scanning microscopy of mature biofilm; type: cell-based, Staphylococcus epidermidis
Protocol: The effect of BiF2_5K7K against mature biofilm was also investigated. In short, overnight cultures of S. epidermidis were diluted to 10^7 CFU/mL with TSB and further incubated at 37°C for 24 h to form biofilms. Next, wells were rinsed with sterile water and mature biofilms was treated with BiF2_5K7K at concentration of MBEC50 and further incubated for 24 h. Subsequently, biofilms were washed again, then stained with green Alexa-ConA and LIVE/DEADTM BacLight™ Bacterial Viability Kit (Invitrogen™, Thermo Fisher, USA) for 15 min. After staining, 2.5% glutaraldehyde was used to fixed biofilms, then observed under CLSM as described above.

[5] = test system: all gram-negative bacterial strains; assay: Mean MIC and therapeutic index, gram-negative strains; type: cell-based; settings: four gram-negative strains
Protocol: The minimal inhibitory concentrations (MICs) of peptide derivatives versus planktonic bacteria were assessed using a modification of the broth microdilution assay previously described in the National Committee for Clinical Laboratory Standards (NCCLS). In brief, bacteria at mid-logarithmic growth were collected by centrifugation at 2,500 × g for 5 min. Subsequently, the pellet was resuspended and adjusted in Mueller-Hinton Broth (MHB; BD Bacto™, USA) to an OD620 of 0.05. Fifty µL of bacterial suspensions was transferred to 96-well microplates. Later, 50 µL of peptide derivatives at 0.98–250 µg/mL in 10 mM PBS, was added to wells and incubated for 24 h at 37°C with continuous shaking at 220 rpm. […] The experiments were done in three technical replicates and repeated independently.
The therapeutic index (TI) is widely used for evaluating a peptide’s efficacy and safety. It is the ratio between the minimum hemolytic concentration (MHC, the concentration causing 10% hemolysis) and the geometric mean (GM) value of the MIC [15]. […] While, both lysine-substituted peptides (BiF2_7K and BiF2_5K7K) had higher TIs against all tested biofilm-forming bacteria than did the two parent peptides, and the TI of BiF2_5K7K was higher than that of BiF2_7K.

## CC[C@H](C)[C@H](NC(=O)[C@H](CCCCN)NC(=O)[C@H](CCCCN)NC(=O)[C@@H](NC(=O)[C@H](CC(C)C)NC(=O)[C@@H](N)Cc1ccccc1)C(C)C)C(=O)N[C@@H](CCCCN)C(=O)N[C@@H](CCCCN)C(=O)N[C@H](C(=O)N[C@@H](CC(C)C)C(=O)N[C@@H](CCCNC(=N)N)C(=O)N[C@@H](CCCNC(=N)N)C(N)=O)[C@@H](C)CC [BiF2_5K7K] (H-FLVKKIKKILRR-NH2; N-terminus assumed)
[1]; minimum concentration inhibiting biofilm formation more than 50%
  MBIC50: 7.81 µg/mL
[1]; minimum concentration inhibiting biofilm formation more than 90%
  MBIC90: 31.25 µg/mL
[2]
  agrC and agrA gene expression: neither agrC nor agrA gene expression changed at all
  expression of quorum-sensing genes agrD and agrB vs untreated control: reduced
  levels of icaC or icaR genes: no alteration
[2]; 2^-ΔΔCt, 16S rRNA reference, significantly upregulated
  relative expression level of icaA, icaD and icaB genes: greater than 1
[3]; 24 h preformed biofilm on peg lids, 37°C
  MBEC50: 31.25 µg/mL
[3]; more than 90% of mature biofilm eradicated
  MBEC90: 125 µg/mL
[4]; at MBEC50, 24 h, p-value < 0.01
  fluorescence intensity ratio (live to dead cells), treated vs untreated: significant difference
[4]; at MBEC50, 24 h treatment
  mature biofilm matrix (Alexa-ConA fluorescence intensity): significant decrease
[5]
  GM-, geometric mean of MIC values from all gram-negative bacterial strains: 93.75 µg/mL

From publication PMC11100219, “Dual-function antimicrobial-antibiofilm peptide hybrid to tackle biofilm-forming Staphylococcus epidermidis” (Annals of Clinical Microbiology and Antimicrobials, 2024)
